Experiment [1] concerns digitaria sanguinalis (DIGSA). Put plainly: Adjuvant with herbicide nicosulfuron on DIGSA. It counts as in vivo. The conditions noted are these: nicosulfuron 30 or 60 g/ha; adjuvants 0.2% of spray water; 14 and 21 days after application. On the procedure:
In this example Sample 13 from Table 1 was compared to the oil adjuvant blend Turbocharge™. The herbicide fomesafen was applied to the weed species xanthium strumarium (XANST), setaria viridis (SETVI), abutilon theophrasti (ABUTH), and chenopodium album (CHEAL) at rates of 60 or 120 grams per hectare, using a laboratory track sprayer. Each experiment was replicated four times and the percentage damage to the weeds was assessed visually at time periods of 7, 14 and 21 days after application. Each adjuvant was applied at a rate of 0.5% of the volume of the spray water. Four effects were evaluated: pesticide rate (2 levels), adjuvant type (two levels), weed species (four levels) and days after application (three levels). […] The effect of each adjuvant was pulled out from the model and the least significant differences evaluated using a Student's t method. […]
In this example the butylene oxide adjuvant Sample 13 of Table 1 was compared to the commercial oil adjuvant blend Atplus™411F. […] Each experiment was replicated four times and the percentage damage to the weeds was assessed visually at time periods of 14 and 21 days after application. […]
In this example the responses of the butylene oxide adjuvants 13, 17, 19, 21, 22 and 23 of Table 1 were measured at an application rate of 0.2% of the volume of the spray solution used. […]

In experiment [2] the test system is xanthium strumarium (XANST), setaria viridis (SETVI), abutilon theophrasti (ABUTH), chenopodium album (CHEAL). Put plainly: Adjuvant with herbicide fomesafen, track sprayer, mean across four weed species. Format: in vivo. As to conditions: fomesafen 60 or 120 g/ha; butylene oxide adjuvants 0.2%, TEHP and Turbocharge 0.5%; 7 and 13 days. On the procedure:
In this example Sample 13 from Table 1 was compared to the oil adjuvant blend Turbocharge™. The herbicide fomesafen was applied to the weed species xanthium strumarium (XANST), setaria viridis (SETVI), abutilon theophrasti (ABUTH), and chenopodium album (CHEAL) at rates of 60 or 120 grams per hectare, using a laboratory track sprayer. […] Four effects were evaluated: pesticide rate (2 levels), adjuvant type (two levels), weed species (four levels) and days after application (three levels). A standard simple linear model was constructed to judge the significance of these effects. […] A model was fitted using multiple linear regression using the statistics package JMP (SAS group). The effect of each adjuvant was pulled out from the model and the least significant differences evaluated using a Student's t method. In further examples, where a greater number than two adjuvants were compared, Tukey's HSD method was used. […]
In this example the rate response of the butylene oxide adjuvant number 13 of Table 1 was measured to display the excellent performance of this adjuvant at very low rates. compared to the adjuvant Brij™96V. […]
In this example the rate response of the butylene oxide sample 27 of Table 1 was measured, displaying the excellent performance of this adjuvant compared to the commercial adjuvant Turbocharge™, used at a rate of 0.5% by volume. […]

Turning to `CCCCC(CC)COP(=O)(OCC(CC)CCCC)OCC(CC)CCCC` (centres unmarked) [TEHP, tris 2-ethylhexyl phosphate], the “mean efficacy (percentage damage to the weeds), DIGSA” value in experiment [1] was 69.17; A %. Moreover, in experiment [2], the “Mean kill across weeds (%)” value is 72.7%.

The values above are taken from patent publication US20120172228A1, “ALCOHOL ALKOXYLATES AS ADJUVANTS FOR AGROCHEMICAL FORMULATIONS” (SYNGENTA CROP PROTECTION, LLC, priority 2009, published 2012).
